Reference: patent US20220226484A1, “THERAPEUTIC PEPTIDES” (COHBAR, INC., priority 2019, published 2022)
Non-standard residues stand in square brackets, D forms with d. Primed or numbered codes have the meaning given here. No end group written: not given here. PEG12′ = not defined here

Columns and labels:
Assay type in all cases: cell-based
3T3-L1 Mouse Adipocytes [1] = assay: Insulin-dependent effect on free fatty acid levels in cultured mouse adipocytes; conditions: for Free Fatty Acid Levels, MEAN % ISO, +Insulin: peptide 10 μM + insulin 0.25 nM, percent of isoproterenol (0.1 nM)+insulin (0.25 nM); for Free Fatty Acid Levels, MEAN % ISO, +Insulin / Free Fatty Acid Levels, MEAN % ISO, −Insulin: 3 hours; for Free Fatty Acid Levels, MEAN % ISO, −Insulin: peptide 10 μM alone, percent of isoproterenol (0.1 nM) treated control cells
Experimental: The effect of the peptides on fatty acid metabolism was assessed in the absence and presence of insulin using an assay of free fatty acid levels in cultured cells such as mouse adipocytes. Peptides were initially prepared as 10 mM stock in DMSO and used at a final concentration of 10 μM (0.1% DMSO). […] Insulin (0.25 nM) was used as a partial inhibitor and insulin (10 nM) was used as a potent inhibitor of isoproterenol stimulated fatty acid production. Mouse 3T3-L1 cells purchased from ZenBio (Research Triangle Park, N.C.) were seeded at 3,000 cells per well on 96-well plates in Pre-Adipocyte Medium (Zen-Bio) and grown to confluence at 37° C. in a humidified atmosphere of 5% CO2/95% air. Two days after confluence, cells were placed in Adipocyte Differentiation Medium (Zen-Bio) and cultured for three additional days at 37° C. in a humidified atmosphere of 5% CO2/95% air. The culture medium was then partially replaced with Adipocyte Maintenance Medium (Zen-Bio) and the cells maintained at 37° C. in a humidified atmosphere of 5% CO2/95% air with partial medium replacement every other day. At 12 day of differentiation, 96-well cultures were transferred to Adipocyte Maintenance Medium without insulin and placed at 37° C. in a humidified atmosphere of 5% CO2/95% air for two days. Following this incubation period, the medium was removed from 14 day differentiated cultures and replaced with Assay Buffer (Zen-Bio) containing peptides (10 μM), insulin (0.25 nM or 10 nM), isoproterenol (0.1 nM) as appropriate. […] isoproterenol was added to all wells except untreated controls. Insulin at 0.1 nM and 10 nM was added to control wells. Peptides (10 μM) in the absence or presence of insulin (0.25 nM) were added to test wells. Cells in the presence of compounds were placed at 37° C. in a humidified atmosphere of 5% CO2/95% air for 3 hours. At the end of the final 3 h incubation, conditioned assay buffer was removed from each well and place in a fresh 96-well plate for quantitation of free fatty acid content. Free fatty acid concentrations in the assay buffer samples were determined using a Free Fatty Acid Assay kit (Zen-Bio) according to the manufacturer's instructions using a Cytation 3 plate reader at 540 nm (BioTek, Winooski, VD. Absorbance values were corrected for untreated background and expressed as a percent of isoproterenol (0.1 nM) treated control cells for peptides alone or isoproterenol (0.1 nM)+insulin (0.25 nM) for peptides in presence of insulin (0.25 nM). Treatment with isoproterenol […] alone was used as the free fatty acid level stimulatory control. The relative standard deviation of the isoproterenol control was <10%. […] Free fatty acid levels for insulin (10 nM) treatment were <5% of the isoproterenol control value. Free fatty acid levels for insulin (0.25 nM) treatment were 60-80% of the isoproterenol control value.

H4IIE Rat Hepatoma Cells = assay: Insulin-dependent effect on glucose production by cultured rat liver cells; conditions: for Glucose Levels, MEAN % Control, +Insulin: peptide 10 μM + insulin 800 pM, percent of insulin (800 pM); for Glucose Levels, MEAN % Control, +Insulin / Glucose Levels, MEAN % Control, −Insulin: 24 hour; for Glucose Levels, MEAN % Control, −Insulin: peptide 10 μM alone, percent of untreated control cells
Experimental: The effect of the peptides on glucose production was assessed in the absence and presence of insulin using an assay of glucose levels in cultured cells such as rat hepatocytes. Peptides were initially prepared as 10 mM stock in DMSO and used at a final concentration of 10 μM (0.1% DMSO). Insulin (800 pM) was used as a partial inhibitor of glucose production. H4-IIE cells purchased from ATCC (Manassas, Va.) were seeded at 100,000 cells/well in standard medium (DMEM/high glucose+10% FBS+1× Glutamax+antibiotics) on 96-well plates and allowed to adhere overnight at 37° C. in a humidified atmosphere of 5% CO2/95% air. Approximately 24 h after seeding, the medium was removed, cells rinsed with glucose free DMEM, and Glucose Production Medium (glucose free DMEM+2 mM sodium pyruvate+10 mM sodium lactate) was added. The cultures were placed at 37° C. in a humidified atmosphere of 5% CO2/95% air overnight. The next morning, the medium was removed and fresh Glucose Production Medium containing compounds was added. Insulin at 800 pM was added to control wells. Peptides (10 μM) in the absence or presence of insulin (800 pM) were added to test wells. Cells in the presence of compounds were placed at 37° C. in a humidified atmosphere of 5% CO2/95% air overnight. After 24 hour incubation, conditioned medium from each well was transferred to a fresh 96-well plate for quantitation of glucose content. Quantitation of glucose levels was determined using an Amplex Red Glucose Assay kit (Abacm; Cambridge, Mass.) according to the manufacturer's instructions using a Cytation 3 plate reader at 570 nm (BioTek, Winooski, Vt.). Absorbance values were expressed as a percent of untreated control cells (maximum glucose production) for peptide alone samples or insulin (800 pM) for peptides in the presence of insulin (800 pM. Glucose levels for insulin (800 pM) treatment were ˜80-90% of the untreated control values. The results are reported in Table 15.

3T3-L1 Mouse Adipocytes [2] = assay: Free fatty acid levels in cultured mouse adipocytes; conditions: insulin 100 nM, 1 nM isoproterenol
Experimental: The effect of the peptides on fatty acid metabolism can be assessed using an assay of free fatty acid levels in cultured cells such as mouse adipocytes. Peptides were initially prepared as 10 mM stock in DMSO and used at a final concentration of 10 μM (0.1% DMSO). […] Mouse 3T3-L1 cells purchased from ZenBio were seeded at 3,000 cells per well in 96-well plates in Pre-adipocyte Medium (Zen-Bio) and grown to confluence at 37° C. in a humidified atmosphere of 5% CO2/95% air. Two days after confluence, cells were placed in Adipocyte Differentiation Medium (Zen-Bio) and cultured for three additional days at 37° C. in a humidified atmosphere of 5% CO2/95% air. The culture media was then replaced with Adipocyte Maintenance Medium (Zen-Bio) and the cells maintained for an additional 9-12 days at 37° C. in a humidified atmosphere of 5% CO2/95% air with partial medium replacement every other day. Following 12-15 days of differentiation, test peptides were added at a final concentration of 10 μM in 0.1% DMSO and incubated for 20-22 hours in Adipocyte Maintenance Medium at 37° C. in a humidified atmosphere of 5% CO2/95% air. After 20-22 hours, 1 nM isoproterenol was added to all wells except untreated controls and test peptides were replenished. Insulin at 100 nM was added to control wells. Cells were incubated for 3 hours in Assay Buffer (Zen-Bio) at 37° C. in a humidified atmosphere of 5% CO2/95% air. Free fatty acid concentrations in the media were determined using a Free Fatty Acid Assay kit (Zen-Bio) according to the manufacturer's instructions using a Cytation 3 plate reader at 540 nm (BioTek, Winooski, Vt.). Absorbance values were corrected for untreated background and expressed relative to isoproterenol treated cells. Treatment with isoproterenol (1 nM) alone was used as the free fatty acid level stimulatory control. The relative standard deviation of the isoproterenol control was <10%. […] Free fatty acid levels for insulin (100 nM) treatment were <5% of the isoproterenol control value.
The effect of the peptides on fatty acid metabolism was assessed using an assay of free fatty acid levels in cultured cells such as mouse adipocytes. Peptides were initially prepared as 10 mM stock in DMSO and used at a final concentration of 10 μM (0.1% DMSO). […] Mouse 3T3-L1 cells purchased from ZenBio were seeded at 3,000 cells per well in 96-well plates in Pre-adipocyte Medium (Zen-Bio) and grown to confluence at 37° C. in a humidified atmosphere of 5% CO2/95% air. Two days after confluence, cells were placed in Adipocyte Differentiation Medium (Zen-Bio) and cultured for three additional days at 37° C. in a humidified atmosphere of 5% CO2/95% air. The culture media was then replaced with Adipocyte Maintenance Medium (Zen-Bio) and the cells maintained for an additional 9-12 days at 37° C. in a humidified atmosphere of 5% CO2/95% air with partial medium replacement every other day. Following 12-15 days of differentiation, test peptides were added at a final concentration of 10 μM in 0.1% DMSO and incubated for 20-22 hours in Adipocyte Maintenance Medium at 37° C. in a humidified atmosphere of 5% CO2/95% air. After 20-22 hours, 1 nM isoproterenol was added to all wells except untreated controls and test peptides were replenished. Insulin at 100 nM was added to control wells. Cells were incubated for 3 hours in Assay Buffer (Zen-Bio) at 37° C. in a humidified atmosphere of 5% CO2/95% air. Free fatty acid concentrations in the media were determined using a Free Fatty Acid Assay kit (Zen-Bio) according to the manufacturer's instructions using a Cytation 3 plate reader at 540 nm (BioTek, Winooski, Vt.). Absorbance values were corrected for untreated background and expressed relative to isoproterenol treated cells. Treatment with isoproterenol (1 nM) alone was used as the free fatty acid level stimulatory control. The relative standard deviation of the isoproterenol control was <10%. […]

| Substance | Free Fatty Acid Levels, MEAN % ISO, +Insulin (3T3-L1 Mouse Adipocytes [1]) [%] | Free Fatty Acid Levels, MEAN % ISO, −Insulin (3T3-L1 Mouse Adipocytes [1]) [%] | Glucose Levels, MEAN % Control, +Insulin (H4IIE Rat Hepatoma Cells) [%] | Glucose Levels, MEAN % Control, −Insulin (H4IIE Rat Hepatoma Cells) [%] | Free fatty acid levels, % of the isoproterenol control value (3T3-L1 Mouse Adipocytes [2]) [%] | Free fatty acid levels, % of the isoproterenol control value (3T3-L1 Mouse Adipocytes [1]; insulin 0.25 nM) | Free fatty acid levels, % of the isoproterenol control value (3T3-L1 Mouse Adipocytes [1]; insulin 10 nM) [%] | Glucose levels, % of the untreated control values (H4IIE Rat Hepatoma Cells; insulin 800 pM) |
| --- | --- | --- | --- | --- | --- | --- | --- | --- |
| RVIRMCLNVGLEGEL(dA) (RVIRMCLNVGLEGEL[dA]) [SEQ ID NO: 19] | 24.7 | 67.1 | 3.7 | 12.5 |  |  |  |  |
| RVIRMCLNVGLNGE [SEQ ID NO: 21] | 40.0 | 102 | 78.2 | 102 |  |  |  |  |
| insulin: highly potent positive control for decreasing free fatty acid levels; partial inhibitor of glucose production |  |  |  |  | < 5 | 60-80% | < 5 | 80-90% |
| {PEG12}KRVIRMCLNVGLLGEL(dA)E ([PEG12′]KRVIRMCLNVGLLGEL[dA]E) [SEQ ID NO: 18] | 93.6 | 107 | 95.4 | 101 |  |  |  |  |
